Test results: patent US7754716B2, “Combination comprising a vasculostatic compound and an alkylating agent for the treatment of a tumor” (Novartis AG, priority 2002, dated 2010)

Test system: recurrent glioblastoma
Test: Treatment of a patient with recurrent glioblastoma with temozolomide plus PTK787
Type: in vivo, human
Conditions: one patient with histologically confirmed recurrent glioblastoma; temozolomide 50 mg/m^2 daily for 5 consecutive days every 28 days in addition to continuous daily dose of 1000 mg PTK787; observed during the third cycle
Procedure: Suitable clinical studies are, for example, randomized, double-blind, placebo-controlled, parallel studies in patients with recurrent glioblastoma, but also dose escalation studies. […] Tumor assessment in the form of dynamic contrast-enhanced MRI is also a suitable approach to determine the effect of the COMBINATION OF THE INVENTION. In a suitable study design, patients are receiving, for example, temozolomide in a dosage of 50 to 250 mg/m^2 daily, for example, 200 mg/m^2 daily, for 5 consecutive days every 28 days or placebo in addition to a continuous daily dose of 500 to 2000 mg of a compound of formula I, e.g., 500, 1000, 1500 or 2000 mg of PTK787 or placebo.

Clc1ccc(Nc2nnc(Cc3ccncc3)c3ccccc23)cc1 [PTK787]
disease status observed under treatment: stable disease
